Test results from patent US20170049781A1, “HSP90 INHIBITOR COMBINATIONS” (Novartis AG, priority 2008, published 2017).

Tests used:
Assay type in all cases: cell-based, human
[1] = system: phosphorylated AKT (P-AKT(S473), T308); test: Western blot of AKT phosphorylation in MDA-MB-231 breast tumor cells; settings: MDA-MB-231 cells
Procedure: (§1) Two cancer derived cell lines are used (BT474 and MDA-MB-231). These are human breast carcinoma cell lines. The cell lines are commercially available from American Type Culture Collection (ATCC). BT474 cells are maintained in Hybri-Care medium (ATCC) supplemented with 10% v/v fetal calf serum and 2 mM L-glutamine. MDB-MB-231 cells are grown in RPMI 1640 medium (Animed, Allschwil, Switzerland) supplemented with 10% v/v fetal calf serum and 2 mM L-glutamine. The media are supplemented with 100 microgramm/ml penicillin/streptomycin and cells are maintained at 37° C. in 5% CO2.
(§2) After division and medium change, cells from stock culture are seeded at a density of 3.3×10^4 cells/cm^2 (BT474) and 1.2×10^4 cells/cm^2 (MDB-MB-231) on cell plates and incubated for 48 hours at 37° C. and 5% CO2 prior to the treatment with DMSO vehicle, 20 nM everolimus (RAD001) and/or various concentrations of AUY922 (compound 1) for 24 hours. To prepare cell lysates culture plates are washed once with ice-cold phosphor buffered saline (PBS) containing 1 mM phenylmethylsulfonyl fluoride (PMSF) and once with ice-cold extraction buffer (50 mM Hepes pH 7.4, 150 mM NaCl, 25 mM beta-glycerophosphate, 25 mM NaF, 5 mM EGTA, 1 mM EDTA, 15 mM PPi, 2 mM sodium orthovanadate, 10 mM sodium molybdate, leupeptin (10 microgramm/ml), aprotinin (10 microgramm/ml), 1 mM DTT and 1 mM PMSF. Cells are extracted in the same buffer, containing 1% NP-40. The extracts are homogenized, cleared by centrifugation, aliquoted and frozen at −80° C. Protein concentration is determined with the BCA Protein Assay (Pierce, Rockford, Ill., USA).
(§3) Twenty micrograms of cell extracts are resolved electrophoretically on 12% denaturing sodium dodecyl sulfate polyacrylamide gels (SDS-PAGE) and transferred to polyvinylidene difluoride filters by wet-blotting (1 hour at 250 mA) and probed overnight at 4° C. with the following primary antibodies:
(§4) anti-phospho-Akt (Ser473) (clone 14-05; 1:2000) obtained from DAKO (Glostrup, Denmark) and diluted in PBS, 0.5% v/v Tween. […]

[2] = system: phosphorylated AKT (P-AKT(S473) and P-AKT(T308)); test: Western blot of AKT phosphorylation in BT474 breast tumor cells
Procedure: as §1, §2, §3, §4

AKT = test: Western blot of AKT levels in MDA-MB-231 breast tumor cells; settings: MDA-MB-231 cells, 100 nM Compound I
Procedure: as §1
After division and medium change, cells from stock culture are seeded at a density of 3.3×10^4 cells/cm^2 (BT474) and 1.2×10^4 cells/cm^2 (MDB-MB-231) on cell plates and incubated for 48 hours at 37° C. and 5% CO2 prior to the treatment with DMSO vehicle, 20 nM everolimus (RAD001) and/or various concentrations of AUY922 (compound 1) for 24 hours. […]

Row | Structure (SMILES) | AKT phosphorylation (P-AKT(S473)) ([1]; 50-100 nM compound I, 24 hours) | AKT phosphorylation (P-AKT(S473) and P-AKT(T308)) ([2]; BT474 cells, 50-100 nM compound I, 24 hours) | AKT levels (AKT) | levels of phosphorylated AKT (P-AKT(S473)) compared to an untreated control ([1]; 20 nM RAD001, 24 hours) | phosphorylation of AKT at amino acid residue T308 on addition of RAD001 in the presence of compound I ([1]; 20 nM RAD001 in the presence of 50-100 nM compound I (combination)) | AKT phosphorylation (P-AKT(S473) and P-AKT(T308)) on addition of RAD001 in the presence of compound I ([2]; BT474 cells, 20 nM RAD001 in the presence of 50-100 nM compound I (combination)) | levels of phosphorylated AKT (P-AKT(S473) and P-AKT(T308)) compared to an untreated control ([2]; BT-474 cells, 20 nM RAD001, 24 hours)
1 | COc1cccc(-c2ccccc2[C@H]2Cc3nc(N)nc(C)c3C(=O)N2)n1 [compound I, (R)-2-amino-7-[2-(6-methoxy-pyridin-2-yl)-phenyl]-4-methyl-7,8-dihydro-6H-pyrido[4,3-d]pyrimidin-5-one] | diminished | diminished | slightly decreased |  |  |  | 
2 | CO[C@H]1C[C@@H]2CC[C@@H](C)[C@@](O)(O2)C(=O)C(=O)N2CCCC[C@H]2C(=O)O[C@H]([C@H](C)C[C@@H]2CC[C@@H](OCCO)[C@H](OC)C2)CC(=O)[C@H](C)/C=C(\C)[C@@H](O)[C@@H](OC)C(=O)[C@H](C)C[C@H](C)/C=C/C=C/C=C/1C [RAD001, 40-O-(2-hydroxyethyl)-rapamycin] |  |  |  | increased levels of phosphorylated AKT | did not cause increased phosphorylation of AKT | did not cause increase in AKT phosphorylation | increased levels of phosphorylated AKT
